Measured values: patent publication US6800247B1, “Deactivants for dust mite allergens” (priority 1997, dated 2004)
Counter-ions that a name gives are not always drawn. Like-named read-outs stand apart in the source and are kept apart here.

What was measured:
Assay type in all cases: biochemical
[1] = target: T1, Der-f allergens (Dermatophagoides farinae, UniProt P16311); conditions: for Ratio of actives remaining after deactivant treatment over those remaining after tannic acid treatment: Examples 48-55, tested as above and compared with tannic acid
T1 construct: Dust is collected from Hoover™ vacuum cleaner bags and passed through a series of sieves down to 63 microns; from tissue; host or cells: house dust from vacuum cleaner bags, sieved to 63 microns
T1 sequence (P16311 99-321): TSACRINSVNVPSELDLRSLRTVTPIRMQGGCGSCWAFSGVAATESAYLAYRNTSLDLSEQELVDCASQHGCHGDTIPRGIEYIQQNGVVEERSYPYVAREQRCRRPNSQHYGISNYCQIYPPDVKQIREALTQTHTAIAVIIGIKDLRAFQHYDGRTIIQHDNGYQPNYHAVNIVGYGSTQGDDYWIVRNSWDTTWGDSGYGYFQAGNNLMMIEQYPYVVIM
Description: (§1) The ELISA protocol for Der-f and Der-p has been developed as follows as a measure of denaturing property for denaturants.
(§2) 1. Dust is collected from Hoover™ vacuum cleaner bags and passed through a series of sieves down to 63 microns.
(§3) 2. Clean petri dishes are labelled with the chemical to be tested (on the base). Three replicates are used for each treatment.
(§4) 3. Filter paper is used to line each dish and 0.2 g of dust is added to each dish onto the filter paper. The lid (or base, as dishes are inverted) is replaced and the dish is shaken to disperse the dust evenly over the filter paper.
(§5) 4. 2% aqueous solutions of deactivant were used except for the silver chloride composite where 0.05% was used instead. Immobilised tannic acid was used as a 1% dispersion. The hydrogenerated hop end was used at the 2% level (in the form of a 10% solution). Water-insoluble deactivants were emulsified with a sorbitone oleate surfactant (i.e. Tween). Hinokitol was used at 0.5% not 2%.
(§6) 5. The dust is sprayed with the corresponding treatment, 2 sprays are required for sufficient coverage (1 spray=1.5 ml).
(§7) 6. Leave uncovered at room temperature, in well aerated room, until filter paper is dry. This can take up to 4 hours.
(§8) 7. Empty dust in epindorfs labelled according to treatment.
(§9) 8. Add 1 ml of 5% Bovine Serum Albumen Phosphate Butter Saline—Tween BSA-PBS-T to each epindorf (5 times the weight of dust) (20 ml of BSA-PBS-T=1 g of BSA in 20 ml of PBS-T).
(§10) 9. Leave overnight in a refrigerator.
(§11) 10. Centrifuge for 5 minutes at 13,000 rpm.
(§12) 11. Decant the supernatant into a new epindorf labelled according to treatment.
(§13) 12. Centrifuge again for 5 minutes at 13,000 rpm.
(§14) 13. Make up dilutions of 1:10 and 1:100 by adding 100 μl of neat solution to 900 μl of 1% BSA-PBS-T (1:10). This is repeated using 100 μl of 1:10 dilution and add to 900 μl of 1% BSA-PBS-T for 1:100 dilution.
(§15) ELISA Protocol 2 for Der-f and Der-p: Indoor Biotechnologies
(§16) 1. Prepare samples and dilutions as in protocol
(§17) 2. Prepare 500 ml of 50 mM carbonate/bicarbonate buffer by dissolving 0.795 g Na2CO3 and 1.465 g NaHCO3 in 500 ml of distilled water. Check the pH is at 9.6. (This solution is kept in the refrigerator in a conical flask).
(§18) 11 ml of carbonate/bicarbonate buffer is added to the dispensing tray.
(§19) 11 μl of Der-f1 or Der-p1 monoclonal antibody
(§20) (Stored in freezer, epindorf in use is in the refrigerator) is added to the buffer. To ensure that all the antibody is removed from the tip, wash out the pipette tip by sucking up and down I the buffer solution, gently stirring to mix thoroughly.
(§21) 4. Pipette 100 μl of the antibody solution into each well of the microtiter plate, cover with a plate sealer and leave overnight at 4° C.
(§22) 5. Empty the plate by quickly inverting it over the sink, then dry by banging on a stack of paper towels.
(§23) 6. Add 200 μl of wash buffer to each well: PBS/0/05% tween (PBS-T)
(§24) 7. Repeat stages 5 and 6 once more (making a total of 2 washes).
(§25) 8. Make sure all the wells are dry, then add 100 μl of 1% BSA-PBS-T. Replace the plate sealer and incubate for 1 hour at room temperature*.
(§26) 9. Repeat steps 5 to 7 (2 washes).
(§27) This is mixed thoroughly.
(§28) 11. Add 100 μl aliquots of the allergen sample to the plate along with the standard allergen samples for the reference curve in duplicate. The standards usually go in the first two columns on the left hand side, with the least concentrated on top. Incubate for 1 hour.
(§29) 12. Follow stages 5 to 6, completing a total of 5 washes.
(§30) 13. Pour 11 ml of 1% BSA-PBS-T(0.11 g of BSA to 11 ml of PBS-T) to the dispensing tray. Add 11 μl of the biotinylated monoclonal antibody (refrigerator) and mix thoroughly.
(§31) 14. Pipette 100 μl into each well and incubate for 1 hour at room temperature.
(§32) 15. Empty plate and wash as described in stage 12. (5 washes).
(§33) 16. Add 11 μl of Streptavidin (freezer) to 11 ml of 1%BSA-PBS-T. Pipette 100 μl into each well and incubate for 30 minutes. Reserve any remaining solution in a vial.
(§34) 17. Empty plate and wash as described in stage 12 (5 washes).

[2] = target: T1, Der-f allergens; design: Amount of Allergen remaining active after deactivant treatment: unit not given here
Description: as §1, §2, §3, §4, §5, §6, §7, §8, §9, §10, §11, §12, §13, §14, §15, §16, §17, §18, §19, §20, §21, §22, §23, §24, §25, §26, §27, §28, §29, §30, §31, §32, §33, §34

[3] = target: T2, Der-p allergens (Dermatophagoides pteronyssinus, UniProt P08176); test: Deactivation of Der-p allergens (ELISA protocol), summary statement
T2 construct: Dust is collected from Hoover™ vacuum cleaner bags and passed through a series of sieves down to 63 microns; from tissue; host or cells: house dust from vacuum cleaner bags, sieved to 63 microns
T2 sequence (P08176 99-320): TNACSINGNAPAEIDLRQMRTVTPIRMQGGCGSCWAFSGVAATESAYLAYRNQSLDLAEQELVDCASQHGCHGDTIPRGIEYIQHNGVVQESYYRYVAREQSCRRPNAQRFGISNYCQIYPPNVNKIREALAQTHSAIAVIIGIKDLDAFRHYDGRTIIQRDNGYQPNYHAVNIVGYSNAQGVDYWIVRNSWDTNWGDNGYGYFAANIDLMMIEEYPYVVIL
Description: The test procedure in Examples 1 to 55 is as follows and is known as the ELISA protocol.
as §1, §15, §19

[4] = Der-f, compared with vacuuming only, no deactivant, 2% deactivant (AgCl composite 0.05%, immobilised tannic acid 1%, hinokitol 0.5%)
[5] = Der-f, 0.2 g sieved house dust sprayed with 2% aqueous deactivant (AgCl composite 0.05%, immobilised tannic acid 1%, hinokitol 0.5%)

Compound	Amount of active Allergen remaining after deactivant treatment [1, 4]	Ratio of remaining active allergen after Deactivant/Tannic Acid Treatment [2]	Amount of Allergen remaining active after deactivant treatment [2, 5]	Amount of active Allergen remaining after deactivant treatment [1]	Amount of Allergen remaining active after deactivant treatment [2]	Ratio of actives remaining after deactivant treatment over those remaining after tannic acid treatment [1]	Effectiveness against Der-p allergens [3]	Ratio of remaining active allergen after Deactivant/Tannic Acid Treatment ([2]; Der-f, ratio below 1 = better than tannic acid)
CCCOCC(C)O (centres unmarked) [1-propoxy-propanol-2]	1233	2.194	3950	–	–	–	–	–
CCCCC(CC)COC(=O)CC(C(=O)OCC(CC)CCCC)S(=O)(=O)[O-].[Na+] (centres unmarked) [Aerosol OT]	4494	1.298	1525	–	–	–	–	–
N.N.O=S(=O)(O)O [Ammonium sulphate, ammonium sulphate]	–	1.618	–	2325	2750	–	–	–
O=C1c2ccccc2C(=O)c2ccccc21 [Anthraquinone sodium salt, the sodium salt of anthraquinone]	–	0.765	1530	–	–	–	–	–
N=C(NCCCCCCNC(=N)NC(=N)Nc1ccc(Cl)cc1)NC(=N)Nc1ccc(Cl)cc1 [Chlorohexidine, 1,1′-hexamethylenebis [5-(4-chlorophenyl)]-biguanide]	2281	0.991	1412.5	–	–	3.0	–	–
O=C(NCO)N(CO)C1(CO)C(=O)NC(=O)N1CO (centres unmarked) [Germall II, diazolidinylurea]	–	0.685	950	–	–	1.5	–	–
O=CCCCC=O [Glutaraldehyde, qlutaraldehyde]	816	–	–	–	–	1.5	effective against Der-p allergens only	–
CC(C)c1cccc(=O)c(O)c1 [Hinokitol, β-thujaplicin]	2058	1.533	3065	–	–	–	–	–
O=C1O[C@H]([C@@H](O)CO)C(O)=C1O [L-Ascorbic Acid, L-ascorbic acid]	1438	1.333	2000	–	–	–	–	–
O=C1C=CC(=O)O1 [Maleic anhydride, maleic anhydride]	783	0.875	1312.5	–	–	1.0	–	–
CN1CCCC1=O [N-methyl pyrrolidone, N-methylpyrrolidone]	–	1.362	1600	–	–	4.0	–	–
C=CCc1cc(OC)c2c(c1OC)OCO2 [Parsley Camphor]	2581	–	1225	–	–	–	–	0.883
O=C([O-])CS.[K+] [Potassium thioglycolate, potassium thioglycolate]	3092	–	–	–	–	–	effective against Der-p allergens only	–
Cc1ccc(C(C)C)c(O)c1 [Thymol, 6-isopropyl-m-cresol]	1500	0.523	725	–	–	4.0	–	–
NC(N)=O [Urea, urea]	–	2.500	3750	–	–	–	–	–
CCCCCCCCCCCCCCCC[N+](C)(C)C.[Cl-] [hexadecyltrimethylammonium chloride]	2863	2.264	4075	–	–	–	–	–
aluminium chlorohydrate	978	2.233	1675	–	–	–	–	–
cyclodextrin	–	2.265	3850	–	–	–	–	–
